Data: ChEMBL document CHEMBL5303573, “Mapping human microbiome drug metabolism by gut bacteria and their genes” (Nature, 2019)

Assays:
[1] = parabacteroides distasonis, 12 h, 2 µM
Description: The drug is tested on Parabacteroides distasonis strain: ATCC8503 for biotransformation. The drug concentrations were measured before and after a 12-h incubation by liquid-chromatography-coupled mass spectrometry (LC–MS)

[2] = The drug is tested on Ruminococcus torques strain: ATCC27756 for biotransformation. The drug concentrations were measured before and after a 12-h incubation by liquid-chromatography-coupled mass spectrometry (LC–MS); type: ADME; parameters: dose 2 uM, timepoint 0 vs 12 hours; conditions: 2 µM
[3] = The drug is tested on Bacteroides fragilis strain: HMW610 for biotransformation. The drug concentrations were measured before and after a 12-h incubation by liquid-chromatography-coupled mass spectrometry (LC–MS); conditions: 2 µM
[4] = The drug is tested on Bifidobacterium longum subsp. Infantis strain: CCUG52486 for biotransformation. The drug concentrations were measured before and after a 12-h incubation by liquid-chromatography-coupled mass spectrometry (LC–MS); conditions: 2 µM
[5] = The drug is tested on Providencia rettgeri strain: DSM1131 for biotransformation. The drug concentrations were measured before and after a 12-h incubation by liquid-chromatography-coupled mass spectrometry (LC–MS); type: ADME; parameters: dose 2 uM, timepoint 0 vs 12 hours; conditions: 2 µM
[6] = The drug is tested on Ruminococcus lactaris strain: ATCC29176 for biotransformation. The drug concentrations were measured before and after a 12-h incubation by liquid-chromatography-coupled mass spectrometry (LC–MS); conditions: 2 µM
[7] = bacteroides thetaiotaomicron, 12 h, 2 µM
Description: The drug is tested on Bacteroides thetaiotaomicron strain: 7330 for biotransformation. The drug concentrations were measured before and after a 12-h incubation by liquid-chromatography-coupled mass spectrometry (LC–MS)

[8] = The drug is tested on Bifidobacterium breve strain: DSM20213 for biotransformation. The drug concentrations were measured before and after a 12-h incubation by liquid-chromatography-coupled mass spectrometry (LC–MS); conditions: 2 µM
[9] = The drug is tested on Clostridium asparagiforme strain: DSM15981 for biotransformation. The drug concentrations were measured before and after a 12-h incubation by liquid-chromatography-coupled mass spectrometry (LC–MS); type: ADME; parameters: dose 2 uM, timepoint 0 vs 12 hours; conditions: enterocloster asparagiformis, 2 µM
[10] = The drug is tested on Bacteroides pectinophilus strain: ATCC43243 for biotransformation. The drug concentrations were measured before and after a 12-h incubation by liquid-chromatography-coupled mass spectrometry (LC–MS); conditions: 2 µM
[11] = The drug is tested on Bacteroides caccae strain: ATCC43185 for biotransformation. The drug concentrations were measured before and after a 12-h incubation by liquid-chromatography-coupled mass spectrometry (LC–MS); conditions: 2 µM
[12] = bacteroides fragilis, 12 h, 2 µM
Description: The drug is tested on Bacteroides fragilis strain: DS-208 for biotransformation. The drug concentrations were measured before and after a 12-h incubation by liquid-chromatography-coupled mass spectrometry (LC–MS)

[13] = bacteroides fragilis, 12 h, 2 µM; remark: listed apart in the source
Description: The drug is tested on Bacteroides fragilis strain: 3397 (T10) for biotransformation. The drug concentrations were measured before and after a 12-h incubation by liquid-chromatography-coupled mass spectrometry (LC–MS)

[14] = The drug is tested on Anaerotruncus colihominis strain: DSM17241 for biotransformation. The drug concentrations were measured before and after a 12-h incubation by liquid-chromatography-coupled mass spectrometry (LC–MS); conditions: 2 µM
[15] = bacteroides eggerthii, 12 h, 2 µM
Description: The drug is tested on Bacteroides eggerthii strain: DSM20697 for biotransformation. The drug concentrations were measured before and after a 12-h incubation by liquid-chromatography-coupled mass spectrometry (LC–MS)

[16] = The drug is tested on Parabacteroides merdae strain: ATCC43184 for biotransformation. The drug concentrations were measured before and after a 12-h incubation by liquid-chromatography-coupled mass spectrometry (LC–MS); conditions: 2 µM
[17] = The drug is tested on Bacteroides coprophilus strain: DSM18228 for biotransformation. The drug concentrations were measured before and after a 12-h incubation by liquid-chromatography-coupled mass spectrometry (LC–MS); conditions: 2 µM
[18] = The drug is tested on Clostridium sp. strain: fecal isolate for biotransformation. The drug concentrations were measured before and after a 12-h incubation by liquid-chromatography-coupled mass spectrometry (LC–MS); conditions: 2 µM
[19] = parabacteroides johnsonii, 12 h, 2 µM
Description: The drug is tested on Parabacteroides johnsonii strain: DSM18315 for biotransformation. The drug concentrations were measured before and after a 12-h incubation by liquid-chromatography-coupled mass spectrometry (LC–MS)

[20] = The drug is tested on Bacteroides fragilis strain: ATCC43859 for biotransformation. The drug concentrations were measured before and after a 12-h incubation by liquid-chromatography-coupled mass spectrometry (LC–MS); conditions: 2 µM

Row | Structure (SMILES) | Bacterial Biotransformation [1] | Bacterial Biotransformation [2] | Bacterial Biotransformation [3] | Bacterial Biotransformation [4] | Bacterial Biotransformation [5] | Bacterial Biotransformation [6] | Bacterial Biotransformation [7] | Bacterial Biotransformation [8] | Bacterial Biotransformation [9] | Bacterial Biotransformation [10] | Bacterial Biotransformation [11] | Bacterial Biotransformation [12] | Bacterial Biotransformation [13] | Bacterial Biotransformation [14] | Bacterial Biotransformation [15] | Bacterial Biotransformation [16] | Bacterial Biotransformation [17] | Bacterial Biotransformation [18] | Bacterial Biotransformation [19] | Bacterial Biotransformation [20]
1 | CCCc1nc2c(C)cc(-c3nc4ccccc4n3C)cc2n1Cc1ccc(-c2ccccc2C(=O)O)cc1 | Compound metabolized | Compound NOT metabolized | Compound metabolized | Compound NOT metabolized | Compound NOT metabolized | Compound NOT metabolized | Compound metabolized | Compound NOT metabolized | Compound NOT metabolized |  |  |  |  |  |  |  |  |  |  | 
2 | CCCCCCOC(=O)/N=C(/N)c1ccc(NCc2nc3cc(C(=O)N(CCC(=O)OCC)c4ccccn4)ccc3n2C)cc1.CS(=O)(=O)O [DABIGATRAN ETEXILATE MESYLATE] | Compound NOT metabolized |  |  | Compound NOT metabolized | Compound NOT metabolized | Compound NOT metabolized | Compound NOT metabolized |  | Compound NOT metabolized | Compound NOT metabolized | Compound NOT metabolized | Compound NOT metabolized | Compound NOT metabolized | Compound NOT metabolized | Compound NOT metabolized | Compound NOT metabolized | Compound NOT metabolized |  |  | 
3 | C[C@]12CCC(=O)C=C1[C@@H]1C[C@@H]1[C@H]1[C@@H]3[C@@H]4C[C@@H]4[C@@]4(CCC(=O)O4)[C@@]3(C)CC[C@@H]12 [DROSPIRENONE] | Compound NOT metabolized | Compound NOT metabolized | Compound metabolized | Compound NOT metabolized |  | Compound NOT metabolized | Compound NOT metabolized |  | Compound NOT metabolized | Compound NOT metabolized | Compound NOT metabolized | Compound NOT metabolized | Compound NOT metabolized | Compound NOT metabolized | Compound NOT metabolized |  |  | Compound NOT metabolized | Compound metabolized | 
4 | CCOc1ccc(NC(C)=O)cc1 [PHENACETIN] | Compound NOT metabolized | Compound NOT metabolized | Compound NOT metabolized | Compound NOT metabolized | Compound NOT metabolized | Compound NOT metabolized | Compound NOT metabolized | Compound NOT metabolized |  | Compound NOT metabolized | Compound NOT metabolized | Compound NOT metabolized | Compound NOT metabolized | Compound NOT metabolized | Compound NOT metabolized | Compound NOT metabolized | Compound NOT metabolized | Compound NOT metabolized | Compound NOT metabolized | Compound NOT metabolized
5 | CS(=O)(=O)O.OC(CCN1CCCCC1)(c1ccccc1)c1ccccc1 [PRIDINOL METHANESULFONATE] |  | Compound NOT metabolized | Compound NOT metabolized | Compound NOT metabolized | Compound NOT metabolized | Compound NOT metabolized | Compound NOT metabolized | Compound NOT metabolized | Compound NOT metabolized | Compound NOT metabolized | Compound NOT metabolized | Compound NOT metabolized | Compound NOT metabolized | Compound NOT metabolized | Compound NOT metabolized | Compound NOT metabolized | Compound NOT metabolized |  |  | 
6 | CC(N)C12CC3CC(CC(C3)C1)C2 (centres undefined) [RIMANTADINE] | Compound NOT metabolized | Compound NOT metabolized | Compound NOT metabolized | Compound NOT metabolized | Compound NOT metabolized | Compound NOT metabolized | Compound NOT metabolized | Compound NOT metabolized |  | Compound NOT metabolized | Compound NOT metabolized | Compound NOT metabolized | Compound NOT metabolized | Compound NOT metabolized | Compound NOT metabolized | Compound NOT metabolized | Compound NOT metabolized | Compound NOT metabolized | Compound NOT metabolized | Compound NOT metabolized
7 | Nc1c2c(nc3ccccc13)CCCC2 [TACRINE] | Compound NOT metabolized | Compound NOT metabolized |  | Compound NOT metabolized |  | Compound NOT metabolized |  | Compound NOT metabolized | Compound NOT metabolized | Compound NOT metabolized | Compound NOT metabolized | Compound NOT metabolized |  | Compound NOT metabolized | Compound NOT metabolized |  |  | Compound NOT metabolized |  | 
8 | Cc1ccc(S(=O)(=O)NC(=O)NN2CCCCCC2)cc1 [TOLAZAMIDE] | Compound metabolized | Compound NOT metabolized | Compound metabolized | Compound metabolized | Compound NOT metabolized | Compound NOT metabolized | Compound metabolized | Compound NOT metabolized |  | Compound metabolized |  | Compound metabolized | Compound metabolized | Compound NOT metabolized | Compound metabolized |  | Compound metabolized | Compound metabolized | Compound metabolized | Compound metabolized
9 | CC[C@@]1(O)C(=O)OCc2c1cc1n(c2=O)Cc2cc3c(CN(C)C)c(O)ccc3nc2-1 [TOPOTECAN] | Compound NOT metabolized | Compound NOT metabolized | Compound NOT metabolized | Compound NOT metabolized | Compound NOT metabolized | Compound NOT metabolized | Compound NOT metabolized | Compound NOT metabolized |  |  | Compound NOT metabolized | Compound NOT metabolized | Compound NOT metabolized | Compound NOT metabolized |  | Compound NOT metabolized | Compound NOT metabolized | Compound NOT metabolized | Compound NOT metabolized | Compound NOT metabolized
10 | Cc1cn([C@H]2C[C@H](N=[N+]=[N-])[C@@H](CO)O2)c(=O)[nH]c1=O [ZIDOVUDINE] | Compound NOT metabolized | Compound NOT metabolized | Compound NOT metabolized | Compound NOT metabolized | Compound NOT metabolized | Compound NOT metabolized | Compound NOT metabolized | Compound NOT metabolized | Compound NOT metabolized | Compound NOT metabolized | Compound NOT metabolized |  | Compound metabolized |  | Compound metabolized | Compound NOT metabolized | Compound NOT metabolized |  | Compound metabolized | 
